# Values of other authors as cited in patent publication US20030135108A1, “High throughput screening methods using magnetic resonance imaging agents” (priority 2001, published 2003).
# Settings: thermodynamic stability of the Gd(III) chelate complex
row,"stability constant (K), formation constant, logK",Compound
1,22.4,O=C([O-])CN(CCN(CC(=O)[O-])CC(=O)[O-])CCN(CC(=O)[O-])CC(=O)[O-].[Gd+3] [Gd(DTPA)^2−]
2,28.5,O=C([O-])CN1CCN(CC(=O)[O-])CCN(CC(=O)O)CCN(CC(=O)[O-])CC1.[Gd+3] [Gd-DOTA]
